Measurements taken from patent US9850225B2, “Compounds useful as immunomodulators” (BRISTOL-MYERS SQUIBB COMPANY, priority 2014, dated 2017).
Where a name gives a salt, the structure may show the parent alone.

molecular target: PD-1/PD-L1 interaction (PD-1-Ig / PD-L1-His) (Homo sapiens (Human), UniProt Q9NZQ7); test: PD-1/PD-L1 Homogenous Time-Resolved Fluorescence (HTRF) binding assay; conditions: PD-1/PD-L1 HTRF binding assay; value given as range class; read-out: Range or IC50
Method in brief: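 Human PD-L1-His (10 nM final) was pre-incubated with inhibitor for 15 min, then PD-1-Ig (20 nM final) was added for a further 15 min in dPBS with 0.1% BSA and 0.05% Tween-20. Binding was detected by HTRF using Eu-cryptate anti-Ig (1 nM) and APC anti-His (20 nM).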

Sequence of PD-1/PD-L1 interaction (PD-1-Ig / PD-L1-His) (Q9NZQ7 other isoform, or with tags, fused parts or gaps): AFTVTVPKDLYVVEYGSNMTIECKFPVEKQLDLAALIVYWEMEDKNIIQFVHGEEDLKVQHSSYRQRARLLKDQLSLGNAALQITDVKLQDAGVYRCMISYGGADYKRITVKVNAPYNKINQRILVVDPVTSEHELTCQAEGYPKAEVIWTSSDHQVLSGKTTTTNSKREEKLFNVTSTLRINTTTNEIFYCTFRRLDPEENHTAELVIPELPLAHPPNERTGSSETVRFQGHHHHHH

| SMILES | IC50 [nM] |
| --- | --- |
| Cc1c(COc2cc(OCc3cncc(C#N)c3)c(CN3CCCC[C@H]3C(=O)NS(=O)(=O)C(F)(F)F)cc2Cl)cccc1-c1ccc2c(c1)OCCO2 [Example 1258, (S)-1-(5-chloro-2-((5-cyanopyridin-3-yl)methoxy)-4-((3-(2,3-dihydrobenzo[b][1,4]dioxin-6-yl)-2-methylbenzyl)oxy)benzyl)-N-((trifluoromethyl)sulfonyl)piperidine-2-carboxamide] | 10 to 100 |
| Cc1c(COc2cc(OCc3cncc(C#N)c3)c(CN3CCCC[C@H]3C(=O)NS(=O)(=O)C3CC3)cc2Cl)cccc1-c1ccc2c(c1)OCCO2 [Example 1259, (S)-1-(5-chloro-2-((5-cyanopyridin-3-yl)methoxy)-4-((3-(2,3-dihydrobenzo[b][1,4]dioxin-6-yl)-2-methylbenzyl)oxy)benzyl)-N-(cyclopropylsulfonyl)piperidine-2-carboxamide] | 0.6 to 10 |
| Cc1c(COc2cc(OCc3cncc(C#N)c3)c(CN3CCCC[C@H]3C(=O)NS(=O)(=O)C(C)C)cc2Cl)cccc1-c1ccc2c(c1)OCCO2 [Example 1260, (S)-1-(5-chloro-2-((5-cyanopyridin-3-yl)methoxy)-4-((3-(2,3-dihydrobenzo[b][1,4]dioxin-6-yl)-2-methylbenzyl)oxy)benzyl)-N-(isopropylsulfonyl)piperidine-2-carboxamide] | 0.6 to 10 |
| Cc1c(COc2cc(OCc3cncc(C#N)c3)c(CN3CCCC[C@H]3C(=O)NS(=O)(=O)c3cn(C)cn3)cc2Cl)cccc1-c1ccc2c(c1)OCCO2 [Example 1261, (S)-1-(5-chloro-2-((5-cyanopyridin-3-yl)methoxy)-4-((3-(2,3-dihydrobenzo[b][1,4]dioxin-6-yl)-2-methylbenzyl)oxy)benzyl)-N-((1-methyl-1H-imidazol-4-yl)sulfonyl)piperidine-2-carboxamide] | 0.6 to 10 |
| Cc1c(COc2cc(OCc3cncc(C#N)c3)c(CN3CCCC[C@H]3C(=O)NS(=O)(=O)N3CCN(C)CC3)cc2Cl)cccc1-c1ccc2c(c1)OCCO2 [Example 1262, (S)-1-(5-chloro-2-((5-cyanopyridin-3-yl)methoxy)-4-((3-(2,3-dihydrobenzo[b][1,4]dioxin-6-yl)-2-methylbenzyl)oxy)benzyl)-N-((4-methylpiperazin-1-yl)sulfonyl)piperidine-2-carboxamide] | 10 to 100 |
| Cc1c(COc2cc(O)c(CN[C@](C)(CO)C(=O)O)cc2Cl)cccc1-c1ccc2c(c1)OCCO2 [Example 1263, (R)-2-((5-chloro-4-((3-(2,3-dihydrobenzo[b][1,4]dioxin-6-yl)-2-methylbenzyl)oxy)-2-hydroxybenzyl)amino)-3-hydroxy-2-methylpropanoic acid, TFA] | 100 to 20000 |
| CC(=O)NCCNCc1cc(C)c(OCc2cccc(-c3ccc4c(c3)OCCO4)c2C)cc1OCc1cccc(C#N)c1 [Example 1264, N-(2-((2-((3-cyanobenzyl)oxy)-4-((3-(2,3-dihydrobenzo[b][1,4]dioxin-6-yl)-2-methylbenzyl)oxy)-5-methylbenzyl)amino)ethyl)acetamide] | 0.6 to 10 |
| Cc1cc(CNC[C@@H](O)CC(=O)O)c(OCc2cccc(C#N)c2)cc1OCc1cccc(-c2ccc3c(c2)OCCO3)c1C [Example 1265, (S)-4-((2-((3-cyanobenzyl)oxy)-4-((3-(2,3-dihydrobenzo[b][1,4]dioxin-6-yl)-2-methylbenzyl)oxy)-5-methylbenzyl)amino)-3-hydroxybutanoic acid] | 0.6 to 10 |
| Cc1cc(CN[C@@](C)(CO)C(=O)O)c(OCc2cccc(C#N)c2)cc1OCc1cccc(-c2ccc3c(c2)OCCO3)c1C [Example 1267, (S)-2-((2-((3-cyanobenzyl)oxy)-4-((3-(2,3-dihydrobenzo[b][1,4]dioxin-6-yl)-2-methylbenzyl)oxy)-5-methylbenzyl)amino)-3-hydroxy-2-methylpropanoic acid] | 0.6 to 10 |
| Cc1cc(CN2CCCC[C@H]2C(=O)O)c(OCc2cccc(C#N)c2)cc1OCc1cccc(-c2ccc3c(c2)OCCO3)c1C [Example 1268, (S)-1-(2-((3-cyanobenzyl)oxy)-4-((3-(2,3-dihydrobenzo[b][1,4]dioxin-6-yl)-2-methylbenzyl)oxy)-5-methylbenzyl)piperidine-2-carboxylic acid] | 0.6 to 10 |
| Cc1cc(CN[C@](C)(CO)C(=O)O)c(OCc2cccc(C#N)c2)cc1OCc1cccc(-c2ccc3c(c2)OCCO3)c1C [Example 1269, (R)-2-((2-((3-cyanobenzyl)oxy)-4-((3-(2,3-dihydrobenzo[b][1,4]dioxin-6-yl)-2-methylbenzyl)oxy)-5-methylbenzyl)amino)-3-hydroxy-2-methylpropanoic acid] | 0.6 to 10 |
| Cc1cc(CNC[C@@H](O)CC(=O)O)c(OCc2ccc(F)c(C#N)c2)cc1OCc1cccc(-c2ccc3c(c2)OCCO3)c1C [Example 1270, (S)-4-((2-((3-cyano-4-fluorobenzyl)oxy)-4-((3-(2,3-dihydrobenzo[b][1,4]dioxin-6-yl)-2-methylbenzyl)oxy)-5-methylbenzyl)amino)-3-hydroxybutanoic acid] | 0.6 to 10 |
| CC(=O)NCCNCc1cc(C)c(OCc2cccc(-c3ccc4c(c3)OCCO4)c2C)cc1OCc1ccc(F)c(C#N)c1 [Example 1271, N-(2-((2-((3-cyano-4-fluorobenzyl)oxy)-4-((3-(2,3-dihydrobenzo[b][1,4]dioxin-6-yl)-2-methylbenzyl)oxy)-5-methylbenzyl)amino)ethyl)acetamide] | 0.6 to 10 |
| Cc1cc(CN2CCCC[C@H]2C(=O)O)c(OCc2ccc(F)c(C#N)c2)cc1OCc1cccc(-c2ccc3c(c2)OCCO3)c1C [Example 1272, (S)-1-(2-((3-cyano-4-fluorobenzyl)oxy)-4-((3-(2,3-dihydrobenzo[b][1,4]dioxin-6-yl)-2-methylbenzyl)oxy)-5-methylbenzyl)piperidine-2-carboxylic acid] | 0.6 to 10 |

The next lines start with the values.

| IC50 [nM] | SMILES |
| --- | --- |
| 0.6 to 10 | Cc1cc(CN[C@](C)(CO)C(=O)O)c(OCc2ccc(F)c(C#N)c2)cc1OCc1cccc(-c2ccc3c(c2)OCCO3)c1C [Example 1273, (R)-2-((2-((3-cyano-4-fluorobenzyl)oxy)-4-((3-(2,3-dihydrobenzo[b][1,4]dioxin-6-yl)-2-methylbenzyl)oxy)-5-methylbenzyl)amino)-3-hydroxy-2-methylpropanoic acid] |
| 0.6 to 10 | Cc1cc(CN[C@@H](CO)C(=O)O)c(OCc2ccc(F)c(C#N)c2)cc1OCc1cccc(-c2ccc3c(c2)OCCO3)c1C [Example 1274, (S)-2-((2-((3-cyano-4-fluorobenzyl)oxy)-4-((3-(2,3-dihydrobenzo[b][1,4]dioxin-6-yl)-2-methylbenzyl)oxy)-5-methylbenzyl)amino)-3-hydroxypropanoic acid] |
| 0.6 to 10 | Cc1cc(CN[C@@](C)(CO)C(=O)O)c(OCc2ccc(F)c(C#N)c2)cc1OCc1cccc(-c2ccc3c(c2)OCCO3)c1C [Example 1275, (S)-2-((2-((3-cyano-4-fluorobenzyl)oxy)-4-((3-(2,3-dihydrobenzo[b][1,4]dioxin-6-yl)-2-methylbenzyl)oxy)-5-methylbenzyl)amino)-3-hydroxy-2-methylpropanoic acid] |
| 0.6 to 10 | CC(=O)NCCNCc1cc(C)c(OCc2cccc(-c3ccc4c(c3)OCCO4)c2C)cc1OCc1cccnc1 [Example 1276, N-(2-((4-((3-(2,3-dihydrobenzo[b][1,4]dioxin-6-yl)-2-methylbenzyl)oxy)-5-methyl-2-(pyridin-3-ylmethoxy)benzyl)amino)ethyl)acetamide] |
| 0.6 to 10 | Cc1cc(CN[C@@H](CO)C(=O)O)c(OCc2cccnc2)cc1OCc1cccc(-c2ccc3c(c2)OCCO3)c1C [Example 1277, (S)-2-((4-((3-(2,3-dihydrobenzo[b][1,4]dioxin-6-yl)-2-methylbenzyl)oxy)-5-methyl-2-(pyridin-3-ylmethoxy)benzyl)amino)-3-hydroxypropanoic acid] |
| 0.6 to 10 | Cc1cc(CNC[C@@H](O)CC(=O)O)c(OCc2cccnc2)cc1OCc1cccc(-c2ccc3c(c2)OCCO3)c1C [Example 1278, (S)-4-((4-((3-(2,3-dihydrobenzo[b][1,4]dioxin-6-yl)-2-methylbenzyl)oxy)-5-methyl-2-(pyridin-3-ylmethoxy)benzyl)amino)-3-hydroxybutanoic acid] |
| 0.6 to 10 | Cc1cc(CN2CCCC[C@H]2C(=O)O)c(OCc2cccnc2)cc1OCc1cccc(-c2ccc3c(c2)OCCO3)c1C [Example 1279, (S)-1-(4-((3-(2,3-dihydrobenzo[b][1,4]dioxin-6-yl)-2-methylbenzyl)oxy)-5-methyl-2-(pyridin-3-ylmethoxy)benzyl)piperidine-2-carboxylic acid] |
| 0.6 to 10 | Cc1cc(CN[C@@](C)(CO)C(=O)O)c(OCc2cccnc2)cc1OCc1cccc(-c2ccc3c(c2)OCCO3)c1C [Example 1280, (S)-2-((4-((3-(2,3-dihydrobenzo[b][1,4]dioxin-6-yl)-2-methylbenzyl)oxy)-5-methyl-2-(pyridin-3-ylmethoxy)benzyl)amino)-3-hydroxy-2-methylpropanoic acid] |
| 0.6 to 10 | Cc1cc(CN[C@](C)(CO)C(=O)O)c(OCc2cccnc2)cc1OCc1cccc(-c2ccc3c(c2)OCCO3)c1C [Example 1281, (R)-2-((4-((3-(2,3-dihydrobenzo[b][1,4]dioxin-6-yl)-2-methylbenzyl)oxy)-5-methyl-2-(pyridin-3-ylmethoxy)benzyl)amino)-3-hydroxy-2-methylpropanoic acid] |
| 0.6 to 10 | CC(=O)NCCNCc1cc(C)c(OCc2cccc(-c3ccc4c(c3)OCCO4)c2C)cc1OCc1cncc(C#N)c1 [Example 1282, N-(2-(2-((5-cyanopyridin-3-yl)methoxy)-4-(3-(2,3-dihydrobenzo[b][1,4]dioxin-6-yl)-2-methylbenzyloxy)-5-methylbenzylamino)ethyl)acetamide] |
| 0.6 to 10 | Cc1cc(CNC[C@@H](O)CC(=O)O)c(OCc2cncc(C#N)c2)cc1OCc1cccc(-c2ccc3c(c2)OCCO3)c1C [Example 1283, (S)-4-(2-((5-cyanopyridin-3-yl)methoxy)-4-(3-(2,3-dihydrobenzo[b][1,4]dioxin-6-yl)-2-methylbenzyloxy)-5-methylbenzylamino)-3-hydroxybutanoic acid] |
